From US11292801B2, “Calpain modulators and therapeutic uses thereof” (Blade Therapeutics, Inc., priority 2016, dated 2022)

Columns and labels:
Human Calpain 1/NS1 = target: T1, Human Calpain 1/NS1 (Homo sapiens, UniProt P07384); test: Biochemical inhibition of calpain 1, continuous fluorescence (FRET substrate) assay; conditions: mean, read-out: Human Calpain 1/NS1 IC50 (nM)_MEAN
T1 sequence (P07384 1-714): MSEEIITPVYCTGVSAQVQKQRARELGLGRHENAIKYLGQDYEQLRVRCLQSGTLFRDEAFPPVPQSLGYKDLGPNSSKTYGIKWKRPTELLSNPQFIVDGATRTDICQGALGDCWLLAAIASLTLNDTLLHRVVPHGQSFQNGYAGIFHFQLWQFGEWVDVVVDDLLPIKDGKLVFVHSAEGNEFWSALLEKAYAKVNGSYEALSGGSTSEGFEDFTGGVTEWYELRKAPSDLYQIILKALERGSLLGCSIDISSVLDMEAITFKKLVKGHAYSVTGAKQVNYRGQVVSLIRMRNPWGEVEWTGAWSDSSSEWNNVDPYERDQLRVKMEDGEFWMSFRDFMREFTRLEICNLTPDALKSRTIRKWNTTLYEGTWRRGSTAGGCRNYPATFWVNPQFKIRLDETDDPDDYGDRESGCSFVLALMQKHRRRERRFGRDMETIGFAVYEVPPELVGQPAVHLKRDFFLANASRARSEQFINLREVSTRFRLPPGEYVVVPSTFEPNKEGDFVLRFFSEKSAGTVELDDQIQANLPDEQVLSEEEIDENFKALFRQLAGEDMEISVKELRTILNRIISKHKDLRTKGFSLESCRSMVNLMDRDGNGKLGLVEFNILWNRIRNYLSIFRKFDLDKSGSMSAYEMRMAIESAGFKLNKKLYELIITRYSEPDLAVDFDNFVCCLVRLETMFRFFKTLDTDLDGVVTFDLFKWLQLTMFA
T1 sequence (P04632 1-268 partner): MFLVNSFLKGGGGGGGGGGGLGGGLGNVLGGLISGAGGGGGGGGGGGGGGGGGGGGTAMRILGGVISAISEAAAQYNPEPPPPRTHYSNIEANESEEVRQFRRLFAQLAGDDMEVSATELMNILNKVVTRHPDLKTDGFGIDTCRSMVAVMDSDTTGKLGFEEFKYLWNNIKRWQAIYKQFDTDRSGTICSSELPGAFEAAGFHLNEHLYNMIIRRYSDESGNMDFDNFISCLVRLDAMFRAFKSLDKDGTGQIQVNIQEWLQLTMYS
Procedure, shortened: (§1)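 IC50 values come from 4-parameter fits of progress-curve rates (1-5 min slopes) against log inhibitor concentration. Calpain and inhibitor premixed at ambient 25C in Tris pH ~7.5/NaCl/DTT buffer, then CaCl2 and FRET substrate added to activate; 5-FAM fluorescence (ex 490/em 520) followed 10 min.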

Human Calpain 2/NS1 = target: T2, Human Calpain 2/NS1 (Homo sapiens, UniProt P17655); test: Biochemical inhibition of calpain 2, continuous fluorescence (FRET substrate) assay; conditions: mean, read-out: Human Calpain 2/NS1 IC50 (nM)_MEAN
T2 sequence (P17655 1-700): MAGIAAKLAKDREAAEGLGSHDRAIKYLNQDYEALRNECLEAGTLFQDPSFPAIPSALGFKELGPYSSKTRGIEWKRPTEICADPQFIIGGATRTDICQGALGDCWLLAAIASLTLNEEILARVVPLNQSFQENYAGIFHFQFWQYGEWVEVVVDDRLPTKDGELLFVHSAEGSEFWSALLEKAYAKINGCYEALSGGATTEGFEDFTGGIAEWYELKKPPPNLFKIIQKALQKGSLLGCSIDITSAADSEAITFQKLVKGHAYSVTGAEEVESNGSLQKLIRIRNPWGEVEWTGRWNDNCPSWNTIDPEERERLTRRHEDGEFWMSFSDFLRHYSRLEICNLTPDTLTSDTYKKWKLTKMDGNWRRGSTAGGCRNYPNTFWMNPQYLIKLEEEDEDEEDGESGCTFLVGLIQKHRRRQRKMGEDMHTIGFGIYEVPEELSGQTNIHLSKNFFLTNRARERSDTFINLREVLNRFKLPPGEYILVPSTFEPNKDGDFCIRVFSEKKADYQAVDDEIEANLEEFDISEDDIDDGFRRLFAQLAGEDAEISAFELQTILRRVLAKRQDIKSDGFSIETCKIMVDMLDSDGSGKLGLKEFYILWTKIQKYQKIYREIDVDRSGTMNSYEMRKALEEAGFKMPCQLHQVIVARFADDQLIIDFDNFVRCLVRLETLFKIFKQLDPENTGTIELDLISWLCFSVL
T2 sequence (P04632 1-268 partner): T1 sequence (P04632 1-268 partner)
Procedure, shortened: as §1

Human Calpain 9/NS1 = target: T3, Human Calpain 9/NS1 (Homo sapiens, UniProt O14815); test: Biochemical inhibition of calpain 9, continuous fluorescence (FRET substrate) assay; conditions: mean, read-out: Human Calpain 9/NS1 IC50 (nM)_MEAN
T3 sequence (O14815 1-690): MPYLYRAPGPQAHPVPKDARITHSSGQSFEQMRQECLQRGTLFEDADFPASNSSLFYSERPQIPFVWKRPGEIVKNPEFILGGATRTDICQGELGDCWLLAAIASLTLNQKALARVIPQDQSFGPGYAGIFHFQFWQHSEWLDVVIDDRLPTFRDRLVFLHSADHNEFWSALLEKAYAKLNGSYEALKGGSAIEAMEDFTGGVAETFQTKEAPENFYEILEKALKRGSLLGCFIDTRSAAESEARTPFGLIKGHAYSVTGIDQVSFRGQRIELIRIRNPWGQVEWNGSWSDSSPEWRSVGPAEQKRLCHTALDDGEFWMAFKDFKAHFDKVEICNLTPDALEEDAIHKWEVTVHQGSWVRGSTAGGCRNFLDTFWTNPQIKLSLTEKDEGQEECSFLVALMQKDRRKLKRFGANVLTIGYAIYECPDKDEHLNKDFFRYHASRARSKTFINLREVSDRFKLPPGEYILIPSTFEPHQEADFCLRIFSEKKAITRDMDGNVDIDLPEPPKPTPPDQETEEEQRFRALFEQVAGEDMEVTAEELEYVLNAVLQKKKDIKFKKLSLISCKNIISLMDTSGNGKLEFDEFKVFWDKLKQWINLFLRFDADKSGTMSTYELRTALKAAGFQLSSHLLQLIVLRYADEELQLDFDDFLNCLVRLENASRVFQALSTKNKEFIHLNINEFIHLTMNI
T3 sequence (P04632 1-268 partner): T1 sequence (P04632 1-268 partner)
Procedure, shortened: as §1

Row | IC50 (Human Calpain 1/NS1) [nM] | IC50 (Human Calpain 2/NS1) [nM] | IC50 (Human Calpain 9/NS1) [nM] | SMILES
1 | > 10000 | > 10000 | > 10000 | COc1cccc(CN(C)C(=O)C(=O)C2CCCCOCCOCc3ccccc3C(=O)N2)c1 (stereo not drawn) [Compound 116, N-(3-methoxybenzyl)-N-methyl-2-oxo-2-(12-oxo-1,3,4,6,7,8,9,10,11,12-decahydrobenzo[f][1,4]dioxa[9]azacyclotetradecin-10-yl)acetamide]
2 | > 10000 | > 10000 | > 10000 | CCCNC(=O)C(=O)C1CCCCOCCOCc2ccccc2C(=O)N1 (stereo not drawn) [Compound 91, 2-Oxo-2-(12-oxo-1,3,4,6,7,8,9,10,11,12-decahydrobenzo[f][1,4]dioxa[9]azacyclotetradecin-10-yl)-N-propylacetamide]
3 | < 3000 | < 3000 | < 3000 | O=C[C@@H]1Cc2cccc(c2)CCCCOc2cccc(c2)-c2ncccc2C(=O)N1 [Compound 35, (S)-3-Oxo-12-oxa-4-aza-2(2,3)-pyridina-1,7(1,3)-dibenzenacyclododecaphane-5-carbaldehyde]
4 | > 10000 | 3000 to 10000 | 3000 to 10000 | O=C[C@@H]1C/C=C/CCCOc2ccccc2C(=O)N1 [Compound 21, (S)-10-Oxo-3,4,7,8,9,10-hexahydro-2h-benzo[b][1]oxa[5]aza-cyclododecine-8-carbaldehyde]
5 | > 10000 | < 3000 | < 3000 | O=C(NCc1ccc(F)cc1)C(=O)C1CCCCOCCOCc2ccccc2C(=O)N1 (stereo not drawn) [Compound 98, N-(4-fluorobenzyl)-2-oxo-2-(12-oxo-1,3,4,6,7,8,9,10,11,12-decahydrobenzo[f][1,4]dioxa[9]azacyclotetradecin-10-yl)acetamide]
6 | > 10000 | > 10000 | > 10000 | CCNC(=O)C(=O)[C@@H]1CCCCCCCCCc2ccccc2C(=O)N1 [Compound 27, (S)—N-ethyl-2-oxo-2-(1-oxo-1,2,3,4,5,6,7,8,9,10,11,12-dodecahydrobenzo[c][1]azacyclotetradecin-3-yl)acetamide]
7 | < 3000 | < 3000 | < 3000 | O=C[C@@H]1CCCCCCOc2ccnc(c2)-c2ccccc2C(=O)N1 [Compound 131, (S)-3-oxo-12-oxa-4-aza-1(2,4)-pyridina-2(1,2)-benzenacyclododecaphane-5-carbaldehyde]
8 | < 3000 | < 3000 | < 3000 | O=C[C@@H]1Cc2cccc(c2)C=CCCOc2cccc(c2)-c2ncccc2C(=O)N1 [Compound 36, (S)-3-Oxo-12-oxa-4-aza-2(2,3)-pyridina-1,7(1,3)-dibenzenacyclododecaphan-8-ene-5-carbaldehyde]
9 | > 10000 | 3000 to 10000 | < 3000 | COc1cc(CNC(=O)C(=O)C2CCCCOCCOCc3ccccc3C(=O)N2)cc(OC)c1 (stereo not drawn) [Compound 119, N-(3,5-dimethoxybenzyl)-2-oxo-2-(12-oxo-1,3,4,6,7,8,9,10,11,12-decahydrobenzo[f][1,4]dioxa[9]azacyclotetradecin-10-yl)acetamide]
10 | > 10000 | > 10000 | < 3000 | CCCCNC(=O)C(=O)[C@@H]1C/C=C\COCCOCc2ccccc2C(=O)N1 [Compound 59, (S,Z)—N-butyl-2-oxo-2-(12-oxo-1,3,4,6,9,10,11,12-octahydrobenzo[f][1,4]dioxa[9]azacyclotetradecin-10-yl)acetamide]
11 | < 3000 | < 3000 | < 3000 | Cc1cc2n(n1)-c1cccc(c1)OCCCCC[C@@H](C(=O)C(N)=O)NC2=O [Compound 141, (S)-2-oxo-2-(11-oxo-1^1H-3-oxa-10-aza-1(3,4)-pyrazola-2(1,3)-benzena-cycloundecaphane-9-yl)acetamide]
12 | < 3000 | < 3000 | < 3000 | O=C[C@@H]1Cc2ccc(cc2)CCCCc2ccc3nn(cc3c2)-c2ncccc2C(=O)N1 [Compound 76, (1^3Z,1^4Z,5S)-3-oxo-1^2H-4-aza-1(2,5)-indazola-2(2,3)-pyridina-7(1,4)-benzenacycloundecaphane-5-carbaldehyde]
13 | > 10000 | > 10000 | > 10000 | CCNC(=O)C(=O)[C@@H]1C/C=C/CCCCCCc2ccccc2C(=O)N1 [Compound 17, (S,E)-N-ethyl-2-oxo-2-(1-oxo-1,2,3,4,7,8,9,10,11,12-decahydrobenzo[c][1]azacyclotetradecin-3-yl)acetamide]
14 | < 3000 | < 3000 | < 3000 | O=C[C@@H]1Cc2ccc(cc2)OCCCCOc2ccc3c(cnn3-c3ncccc3C(=O)N1)c2 [Compound 67, (5S)-3-oxo-1^1H-8,13-dioxa-4-aza-1(1,5)-indazola-2(2,3)-pyridina-7(1,4)-benzenacyclotridecaphane-5-carbaldehyde]
15 | > 10000 | > 10000 | < 3000 | CCCCNC(=O)C(=O)[C@@H]1C/C=C/COCCOCc2ccccc2C(=O)N1 [Compound 64, (S,E)-N-butyl-2-oxo-2-(12-oxo-1,3,4,6,9,10,11,12-octahydrobenzo[f][1,4]dioxa[9]azacyclotetradecin-10-yl)acetamide]
16 | 3000 to 10000 | < 3000 | < 3000 | O=C[C@@H]1CC=CCCOc2ccnc(n2)-c2ccccc2C(=O)N1 [Compound 39, (S)-3-Oxo-11-oxa-4-aza-1(2,4)-pyrimidina-2(1,2)-benzenacyclo undecaphan-7-ene-5-carbaldehyde]
17 | > 10000 | > 10000 | < 3000 | O=C(NCc1cccc(OC(F)(F)F)c1)C(=O)C1CCCCOCCOCc2ccccc2C(=O)N1 (stereo not drawn) [Compound 120, 2-Oxo-2-(12-oxo-1,3,4,6,7,8,9,10,11,12-decahydrobenzo[f][1,4]dioxa[9]aza-cyclotetradecin-10-yl)-N-(3-(trifluoromethoxy)benzyl)acetamide]
18 | > 10000 | > 10000 | > 10000 | CC(C)NC(=O)C(=O)[C@@H]1CCCCOCCOCc2ccccc2C(=O)N1 [Compound 52, (S)—N-isopropyl-2-oxo-2-(12-oxo-1,3,4,6,7,8,9,10,11,12-decahydrobenzo[f][1,4]dioxa[9]azacyclotetradecin-10-yl)acetamide]
